Results as given in patent publication US9835633B1, “Compositions and methods for identifying agents for treating apoE-related diseases” (The J. David Gladstone Institutes, priority 2015, dated 2017).

System: NSE-apoE4 primary neurons
Test: apoE fragmentation in NSE-apoE4 primary neurons (western blot)
Assay type: cell-based, mouse
Details: NSE-apoE4 primary neurons treated with compound changing Golgi pH or calcium levels
Description: To confirm that PCSK1 and PCSK2 actually contribute to neuronal cleavage of apoE observed in NSE-apoE4 primary neurons, NSE-apoE4 primary neurons were treated with lentivirus encoding either PCSK1 shRNA or PCSK2 shRNA to decrease the endogenous PCSK1 or PCSK2 levels.
Activity of both PCSK1 and PCSK2 is pH and calcium dependent. The optimum pH for PCSK1 and PCSK2 was acidic (pH 6.0 for PCSK1, pH 5.0 for PCSK2). Their activities were enriched in Golgi/trans-Golgi in neurons, which have an acidic environment. Based on this knowledge, it was hypothesized that changing the Golgi pH or calcium levels in neurons would affect PCSK1/PCSK2 activity and further regulate apoE fragmentation. To test this idea, NSE-apoE4 primary neurons were treated with Bafilomycin A, a compound that can increase Golgi pH, or Thapsigargin/2-APB, which can affect the calcium concentration in different cellular compartments.
PCSK1/PCSK2 generated similar apoE fragmentation patterns in N2A-apoE4 cells compared to NSE-apoE4 primary neurons. To determine whether PCSK1/PCSK2-generated apoE fragments are the same as those generated endogenously, lysates from N2A-apoE4 cells overexpressing either PCSK1 or PCSK2, lysates from NSE-apoE4 primary neurons, and the mixture of these two lysates, were tested. ApoE fragmentation was detected by western blot.

| SMILES | apoE fragmentation after compound treatment |
| --- | --- |
| C/C=C(/C)C(=O)O[C@H]1C(C)=C2[C@H]([C@@H]1OC(=O)CCCCCCC)[C@@](C)(OC(C)=O)C[C@H](OC(=O)CCC)[C@@]1(O)[C@H]2OC(=O)[C@@]1(C)O [Thapsigargin] | decrease of apoE fragmentation |
| NCCOB(c1ccccc1)c1ccccc1 [2-APB] | decrease of apoE fragmentation |
| CO/C1=C\C(C)=C\[C@@H](C)[C@@H](O)[C@@H](C)C/C(C)=C/C=C/[C@H](OC)[C@@H]([C@@H](C)[C@@H](O)[C@H](C)[C@@]2(O)C[C@@H](O)[C@H](C)[C@@H](C(C)C)O2)OC1=O [Bafilomycin A] | decrease of apoE fragmentation |
